Data: US11249161B2, “Magnetic resonance method for detecting molecular binding with enhanced sensitivity” (The Johns Hopkins University, priority 2017, dated 2022)

How the values were obtained:
[1] = target: bovine serum albumin (BSA) (Bos taurus, UniProt P02769)
Source text: (§1) Maps were generated by mapping the signal difference (pre minus post infusion) between the partial spectra (−1.0 to −2.0 ppm). Field correction for static field (B0) inhomogeneities was done by creating field maps from the low power Z-spectra acquired in our study and shifting the Z-spectra voxel wise according to the WASSR method^27.

mouse brain = assay: In vivo IMMOBILISE MRI in mice after caffeine infusion
Procedure: All experiments were performed in accordance with Institutional Animal Care and Use Committee guidelines and approved by the Johns Hopkins University Animal Care and Use Committee. Eight 6-8 week old female BALB/c mice, were anesthetized by isoflurane and kept warm with a heating pad and kept in place with a stereotactic holder. […] A home-built catheter was connected to a syringe infusion through PE-50 tubing.
MRI experiments were acquired on a 11.7 T Bruker Biospec preclinical scanner (Bruker, Ettlingen, Germany) equipped with a 72 mm quadrature volume resonator for RF transmission and a 2×2 mouse phased array coil for RF reception. The saturation preparation consisted of a 3 s, 0.5 μT CW saturation pulse followed by a two-shot FSE readout. The FSE readout parameters were TR/TE=6000/4 ms, a 64×64 acquisition matrix across a field of view of 17×17 mm and slice thickness of 1 mm. […] Acquisition of each partial Z-spectra took 105 s and was continued for 1-hour post bolus and then a complete Z-spectrum was again acquired.
as §1

Chain of bovine serum albumin (BSA) (P02769 25-607): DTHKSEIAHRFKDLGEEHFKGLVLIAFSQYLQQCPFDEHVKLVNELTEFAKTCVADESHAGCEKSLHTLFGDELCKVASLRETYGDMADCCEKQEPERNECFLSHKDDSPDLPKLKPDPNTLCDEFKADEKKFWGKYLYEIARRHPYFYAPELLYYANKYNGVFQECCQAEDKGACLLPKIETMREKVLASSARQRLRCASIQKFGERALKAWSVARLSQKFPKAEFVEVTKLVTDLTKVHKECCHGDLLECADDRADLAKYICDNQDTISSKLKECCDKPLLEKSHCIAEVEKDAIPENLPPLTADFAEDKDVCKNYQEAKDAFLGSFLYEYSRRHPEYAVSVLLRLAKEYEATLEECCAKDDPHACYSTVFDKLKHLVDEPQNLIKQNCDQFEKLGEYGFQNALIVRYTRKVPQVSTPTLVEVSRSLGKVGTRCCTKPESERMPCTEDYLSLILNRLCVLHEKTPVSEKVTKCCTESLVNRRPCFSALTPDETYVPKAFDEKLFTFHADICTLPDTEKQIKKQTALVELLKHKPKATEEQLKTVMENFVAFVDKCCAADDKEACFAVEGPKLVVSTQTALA

Structure (SMILES): Cn1c(=O)c2c(ncn2C)n(C)c1=O [caffeine]
- factor in sensitivity enhancement [1]: ~1000
- concentration of caffeine in mouse blood (estimate) (mouse brain; 2 mL blood, 50 μL of 100 mM caffeine infused): about 2.5 mM
- change in water signal (detection sensitivity) (mouse brain; mice, after caffeine infusion, about 2.5 mM in blood): 1-3%
- factor of enhancement (mouse brain; mice, in vivo): 30-100
